What all share (experiment): relative viability (nuclei count vs DMSO), 5 days (fraction); higher = more cells survive
Compound in assay [1]: C1=CC=C(C(=C1)C2=CC=C(C=C2)C3=CSC4=C3C(=C(C(=O)N4)C#N)O)O + Nc1ncn([C@H]2C[C@H](O)[C@@H](CO)O2)c(=O)n1 [Decitabine] (partner 2 µM)
The procedure, abridged:
(§1)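 Relative viability equals treated-well nuclei counts divided by vehicle-well nuclei counts. Counts came from 4× images of lung cancer cell lines grown in 1536-well plates for 5 days after pin-tool dosing on the day after seeding. Dosing used one drug alone or a fixed anchor-drug dose plus five library-drug doses (not always all listed) in √10 steps, and values are medians of duplicate plates.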

Compound in the assay “TGX 221 + Pemetrexed”: CC1=CN2C(=O)C=C(N=C2C(=C1)C(C)NC3=CC=CC=C3)N4CCOCC4 [TGX 221] + Nc1nc2[nH]cc(CCc3ccc(C(=O)N[C@@H](CCC(=O)O)C(=O)O)cc3)c2c(=O)[nH]1 [Pemetrexed] (partner 0.2 µM)
The procedure, abridged:
as §1

Compound in assay [2]: O=C(CCCCCCNC(=O)c1cnc(N(c2ccccc2)c2ccccc2)nc1)NO [Ricolinostat] + CC(=O)Nc1cccc(-n2c(=O)n(C3CC3)c(=O)c3c(Nc4ccc(I)cc4F)n(C)c(=O)c(C)c32)c1 [Trametinib] (partner 0.02 µM)
The procedure, abridged:
as §1

Compound in the assay “Ricolinostat + OSI-027”: O=C(CCCCCCNC(=O)c1cnc(N(c2ccccc2)c2ccccc2)nc1)NO [Ricolinostat] + COc1cccc2cc(-c3nc([C@H]4CC[C@H](C(=O)O)CC4)n4ncnc(N)c34)[nH]c12 [OSI-027] (partner 0.5 µM)
The procedure, abridged: as §1

Compound in assay [3]: O=C(CCCCCCNC(=O)c1cnc(N(c2ccccc2)c2ccccc2)nc1)NO [Ricolinostat] + Nc1ncn([C@H]2C[C@H](O)[C@@H](CO)O2)c(=O)n1 [Decitabine] (partner 2 µM)
The procedure, abridged: as §1

Take NCI-H1792: the relative viability in assay [1] (first compound 0.253 µM) amounted to 0.715; in assay [1] (first compound 0.8 µM) it was 0.482; in assay [1] (first compound 2.53 µM) it was 0.617; in assay [1] (first compound 8 µM), 0.438; in the assay with TGX 221 + Pemetrexed (first compound 0.08 µM), 0.795; with TGX 221 + Pemetrexed (first compound 0.253 µM), 0.695. Further, the relative viability with TGX 221 + Pemetrexed (first compound 0.8 µM) stood at 0.557; in the assay with TGX 221 + Pemetrexed (first compound 2.53 µM) it was 0.549; with TGX 221 + Pemetrexed (first compound 8 µM) it was 0.802; in assay [2] (first compound 0.253 µM), 0.486; in assay [2] (first compound 0.8 µM), 0.418; in assay [2] (first compound 2.53 µM) it was 0.468. Also, the relative viability in the assay with Ricolinostat + OSI-027 (first compound 0.253 µM) is 0.709; in the assay with Ricolinostat + OSI-027 (first compound 0.8 µM), 0.693; with Ricolinostat + OSI-027 (first compound 2.53 µM), 0.759; in assay [3] (first compound 0.253 µM) it was 0.484; in assay [3] (first compound 0.8 µM) it was 0.492; in assay [3] (first compound 2.53 µM), 0.366.

Values taken from the supplement of paper PMC10307832.
